Like-named read-outs stand apart in the source and are kept apart here.
What was measured:
n-hexadecane/1-octanol = details: calculated as logPC16/W-logPO/W
[1] = value without superscript b; ref ClogP database; cited from earlier work
[2] = value without superscript a: measured and listed in Table S1; cited from earlier work
n-hexadecane/water = details: for P (n-hexadecane/water partition coefficient): shake-flask, P=l1/l2, ± error
[3] = 25 °C, shaking at 25 rpm, fit of eqs 1 and 2

Structure (SMILES)	logP C16/O (n-hexadecane/1-octanol)	l1 (rate parameter of transport from water to C16) (n-hexadecane/water; [3])	l2 (rate parameter of transport from C16 to water) (n-hexadecane/water; [3])	further results
CCCCCCCCO [1-octanol]	−1.310			
Cn1c2ccccc2c2ccccc21 [N-methylcarbazole]	0.799			logP O/W [1]: 3.990
Cc1c[nH]c2ccccc12 [3-methylindole]	−1.360			logP C16/W [2]: 0.810
O=C(O)Cc1c2ccccc2cc2ccccc12 [9-anthracene-acetic acid]	−2.570			
OCc1ccccc1 [benzylalcohol]	−1.530			logP C16/W [2]: −0.430
Nc1cccc(Br)c1 [3-bromoaniline]		(6.304±0.471)×10^−1 cm/h	(5.693±0.339)×10^−2 cm/h	P (n-hexadecane/water partition coefficient) (n-hexadecane/water; 25 °C): (1.107±0.106)×10^1
C=CCc1ccccc1O [2-allylphenol]		(2.286±0.857)×10^−1 cm/h	(3.211±0.685)×10^−2 cm/h	
CC(C)c1c(O)ccc2c1CC[C@H]1C(C)(C)CCC[C@]21C [totarol]	−0.924			
CCC(O)c1ccccc1 (centres unmarked) [1-phenyl-1-propanol]		(3.864±0.154)×10^−1 cm/h	(1.226±0.240)×10^−1 cm/h	P (n-hexadecane/water partition coefficient) (n-hexadecane/water; 25 °C): 3.153±0.630
COc1ccccc1OC [1,2-dimethoxybenzene]		1.171 ± 0.535 cm/h	(4.301±0.840)×10^−2 cm/h	P (n-hexadecane/water partition coefficient) (n-hexadecane/water; 25 °C): (2.723±1.352) ×10^1
Cc1c2ccccc2cc2ccccc12 [9-methylanthracene]	−0.015			logP O/W [1]: 5.070
CCCCCCCCCC [n-decane]	1.030			logP C16/W [2]: 7.010
CC(C)(C)CC(C)(C)c1ccc(O)cc1 [4-tert-octylphenol]	−1.665			
CC(C)(c1ccc(O)cc1)c1ccc(O)cc1 [bisphenol A]	−4.222			logP C16/W [2]: −0.902
O=CNc1ccccc1 [formanilide]		(1.532±0.501)×10^−1 cm/h	(5.283±0.213)×10^−1 cm/h	P (n-hexadecane/water partition coefficient) (n-hexadecane/water; 25 °C): 2.900±0.955)×10^−1
c1ccc2ncccc2c1 [quinoline]		(3.766±0.198)×10^−1 cm/h	(3.566±1.200)×10^−2 cm/h	
C(=CC=Cc1ccccc1)C=Cc1ccccc1 [1,6-diphenyl-1,3,5-hexatriene]	0.188			
CCCCCc1cc(O)c2c(c1)OC(C)(C)[C@@H]1CC=C(C)C[C@@H]21 [Δ8-tetrahydrocannabinol]	−2.139			logP O/W [1]: 7.410
CC(=O)Nc1ccccc1 [acetanilide]		(1.315±0.434)×10^−1 cm/h	(5.104±0.179)×10^−1 cm/h	P (n-hexadecane/water partition coefficient) (n-hexadecane/water; 25 °C): (2.580±0.857)×10^−1
c1ccncc1 [pyridine]				l1 (rate parameter of transport from water to C16) (n-hexadecane/water): (9.512±0.343)×10^−2 cm/h; l2 (rate parameter of transport from C16 to water) (n-hexadecane/water): (2.672±0.669)×10^−1 cm/h
Cn1c(=O)c2c(ncn2C)n(C)c1=O [caffeine, reference compound]		(5.485±0.851)×10^−2 cm/h	(2.309±0.430)×10^−1 cm/h	
NCCc1c2ccccc2cc2ccccc12 [9-anthracene-ethanamine]	−1.549			
Cc1cc(O)ccc1Cl [4-chloro-3-methylphenol]		(1.491±0.611)×10^−1 cm/h	(9.029±1.001)×10^−2 cm/h	P (n-hexadecane/water partition coefficient) (n-hexadecane/water; 25 °C): 1.651±0.701
CN[C@@H](C)[C@H](O)c1ccccc1 [ephedrine, reference compound]	−1.770			logP C16/W [2]: −0.840
NC(=O)Cc1ccccc1 [2-phenylacetamide]		(1.624±0.359)×10^−2 cm/h	(2.771±0.857)×10^−1 cm/h	
O=C(c1ccccc1)c1ccc(Br)cc1 [4-bromobenzophenone]		(1.054±0.026)×10^1 cm/h	(3.646±0.858)×10^−2 cm/h	P (n-hexadecane/water partition coefficient) (n-hexadecane/water; 25 °C): (2.891±0.684)×10^2

From article PMC3733081 (Journal of chemical information and modeling, 2013)
